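Cells were grown in 96-well plates and exposed to each compound for 48 hours at five concentrations; endpoints were interpolated linearly between bracketing concentrations, or set to the highest concentration if not reached. GI50: concentration for 50% inhibition of growth.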 The source made the active and inactive calls. Cut-off read from the data, not from the text of the source: active = GI50 up to about 1.1 µM and inactive = higher.
What was measured:
Assay in all cases: NCI-60 cell line screen, 48 h
[1] = system: HOP-62
[2] = system: OVCAR-5
[3] = system: COLO 205
[4] = system: ACHN
[5] = system: XF498
[6] = system: HOP-18
[7] = system: HL-60
[8] = system: OVCAR-8
[9] = system: KM12
[10] = system: M19-MEL
[11] = system: LOX IMVI
[12] = system: HCT-116
[13] = system: SK-MEL-28
[14] = system: SNB-78
[15] = system: OVCAR-4
[16] = system: DMS-114
[17] = system: U-251
[18] = system: IGROV-1
[19] = system: HT-29
[20] = system: A549
[21] = system: EKVX
[22] = system: SF-539
[23] = system: SK-OV-3
[24] = system: HCT-15
[25] = system: TK-10
[26] = system: Malme-3M
[27] = system: KM-20L2
[28] = system: SNB-75
[29] = system: MOLT-4
[30] = system: RXF 631
[31] = system: UACC-257
[32] = system: SN12C
[33] = system: SF-295
[34] = system: DMS-273
[35] = system: CCRF-CEM
[36] = system: LXFL 529
[37] = system: K562
[38] = system: M14
[39] = system: RXF 393
[40] = system: SF-268
[41] = system: UACC-62
[42] = system: CAKI-1
[43] = system: SK-MEL-2
[44] = system: NCI-H23
[45] = system: NCI-H522
[46] = system: OVCAR-3
[47] = system: SNB-19
[48] = system: A498
[49] = system: HCC 2998
[50] = system: NCI-H226
[51] = system: NCI-H460
[52] = system: DLD-1
[53] = system: 786-0
[54] = system: SW-620
[55] = system: HOP-92
[56] = system: RPMI-8226
[57] = system: SR
[58] = system: SK-MEL-5
[59] = system: UO-31
[60] = system: NCI/ADR-RES

O=P1(Oc2ccccc2)C(c2ccccc2)C(c2ccccc2)=NN1c1ccccc1 (centres undefined)
GI50 [1]: 24.6 µM (inactive)
GI50 [2]: 25.4 µM (inactive)
GI50 [3]: 18.9 µM (inactive)
GI50 [4]: 24.5 µM (inactive)
GI50 [5]: 43.2 µM (inactive)
GI50 [6]: 44.1 µM (inactive)
GI50 [7]: 15.8 µM (inactive)
GI50 [8]: 37 µM (inactive)
GI50 [9]: 25.8 µM (inactive)
GI50 [10]: 23.1 µM (inactive)
GI50 [11]: 17.3 µM (inactive)
GI50 [12]: 17.2 µM (inactive)
GI50 [13]: 25.6 µM (inactive)
GI50 [14]: 46.5 µM (inactive)
GI50 [15]: 31.6 µM (inactive)
GI50 [16]: 19.5 µM (inactive)
GI50 [17]: 18 µM (inactive)
GI50 [18]: 26.2 µM (inactive)
GI50 [19]: 18.3 µM (inactive)
GI50 [20]: 29.2 µM (inactive)
GI50 [21]: 37.3 µM (inactive)
GI50 [22]: 18.4 µM (inactive)
GI50 [23]: 22.6 µM (inactive)
GI50 [24]: 19.6 µM
GI50 [25]: 38.7 µM (inactive)
GI50 [26]: 43.7 µM (inactive)
GI50 [27]: 20.7 µM (inactive)
GI50 [28]: 30 µM (inactive)
GI50 [29]: 22 µM (inactive)
GI50 [30]: 35.4 µM (inactive)
GI50 [31]: 27.9 µM (inactive)
GI50 [32]: 25.9 µM (inactive)
GI50 [33]: 28.2 µM (inactive)
GI50 [34]: 30.3 µM (inactive)
GI50 [35]: 30.4 µM (inactive)
GI50 [36]: 19.8 µM (inactive)
GI50 [37]: 24.8 µM (inactive)
GI50 [38]: 19.7 µM (inactive)
GI50 [39]: 24.2 µM (inactive)
GI50 [40]: 29.4 µM (inactive)
GI50 [41]: 18.2 µM (inactive)
GI50 [42]: 23.9 µM (inactive)
GI50 [43]: 15.9 µM (inactive)
GI50 [44]: 22.8 µM (inactive)
GI50 [45]: 19 µM (inactive)
GI50 [46]: 19.7 µM (inactive)
GI50 [47]: 34.9 µM (inactive)
GI50 [48]: 29.6 µM (inactive)
GI50 [49]: 28.8 µM (inactive)
GI50 [50]: 23.5 µM (inactive)
GI50 [51]: 24.2 µM (inactive)
GI50 [52]: 18.3 µM (inactive)
GI50 [53]: 33.7 µM (inactive)
GI50 [54]: 21.5 µM (inactive)

C=C(NC(=O)C(=C)NC(=O)c1csc(C2=NC3c4csc(n4)C4NC(=O)c5csc(n5)C(C(C)(O)C(C)O)NC(=O)C5CSC(=N5)/C(=C/C)NC(=O)C(C(C)O)NC(=O)c5csc(n5)C3(CC2)NC(=O)C(C)NC(=O)C(=C)NC(=O)C(C)NC(=O)C(C(C)CC)NC2C=Cc3c(C(C)O)cc(nc3C2O)C(=O)OC4C)n1)C(N)=O (centres undefined)
GI50 [55]: 1.7 µM (inactive)
GI50 [1]: 9.35 µM (inactive)
GI50 [2]: 11.8 µM (inactive)
GI50 [4]: 2.32 µM (inactive)
GI50 [5]: 0.355 µM (active)
GI50 [6]: 2.72 µM (inactive)
GI50 [7]: 2.69 µM (inactive)
GI50 [9]: 1.93 µM (inactive)
GI50 [10]: 1.37 µM (inactive)
GI50 [11]: 1.08 µM (active)
GI50 [12]: 0.51 µM (active)
GI50 [13]: 1.27 µM (inactive)
GI50 [56]: 0.644 µM (active)
GI50 [14]: 2.54 µM (inactive)
GI50 [15]: 19.9 µM (inactive)
GI50 [16]: 2.72 µM (inactive)
GI50 [17]: 1.57 µM (inactive)
GI50 [18]: 9.06 µM (inactive)
GI50 [19]: 1.43 µM (inactive)
GI50 [20]: 4.57 µM (inactive)
GI50 [21]: 18.2 µM (inactive)
GI50 [22]: 1.73 µM (inactive)
GI50 [57]: 0.302 µM (active)
GI50 [58]: 1.34 µM (inactive)
GI50 [23]: 15 µM (inactive)
GI50 [24]: 4.12 µM
GI50 [25]: 2.75 µM (inactive)
GI50 [26]: 1.63 µM (inactive)
GI50 [27]: 2.84 µM (inactive)
GI50 [59]: > 78.3 µM (inactive)
GI50 [28]: 1.82 µM (inactive)
GI50 [30]: 3.61 µM (inactive)
GI50 [31]: 1.75 µM (inactive)
GI50 [32]: 1.94 µM (inactive)
GI50 [60]: > 58.3 µM (inactive)
GI50 [33]: 4 µM (inactive)
GI50 [34]: 1.37 µM (inactive)
GI50 [35]: 0.297 µM (active)
GI50 [36]: 0.449 µM (active)
GI50 [37]: 0.726 µM (active)
GI50 [38]: 1.67 µM (inactive)
GI50 [41]: 1.24 µM (inactive)
GI50 [42]: 2.92 µM (inactive)
GI50 [43]: 1.65 µM (inactive)
GI50 [44]: 2.79 µM (inactive)
GI50 [45]: 0.287 µM (active)
GI50 [46]: 1.75 µM (inactive)
GI50 [47]: 2.69 µM (inactive)
GI50 [48]: 1.74 µM (inactive)
GI50 [49]: 6.67 µM (inactive)
GI50 [50]: 1.9 µM (inactive)
GI50 [51]: 1.72 µM (inactive)
GI50 [52]: 1.76 µM (inactive)
GI50 [53]: 1.54 µM (inactive)
GI50 [54]: 0.412 µM (active)
